Reference: publication PMC10799935, “Discovery of a peripheral 5HT2A antagonist as a clinical candidate for metabolic dysfunction-associated steatohepatitis” (Nature Communications, 2024)
Several values for one entry are separate records, joined by “and”; a condition that tells them apart may be missing. Equal entries are not always repeated.

Assays:
5HT4E (h) = molecular target: T1, 5HT4E (h) (Homo sapiens, UniProt Q13639); test: 5HT subtype antagonism assay (Eurofins Cerep): 5HT4E; assay type: cell-based; settings: concentration not given
T1 construct: host or cells: CHO cells
T1 sequence (Q13639 1-378 isoform Q13639-5): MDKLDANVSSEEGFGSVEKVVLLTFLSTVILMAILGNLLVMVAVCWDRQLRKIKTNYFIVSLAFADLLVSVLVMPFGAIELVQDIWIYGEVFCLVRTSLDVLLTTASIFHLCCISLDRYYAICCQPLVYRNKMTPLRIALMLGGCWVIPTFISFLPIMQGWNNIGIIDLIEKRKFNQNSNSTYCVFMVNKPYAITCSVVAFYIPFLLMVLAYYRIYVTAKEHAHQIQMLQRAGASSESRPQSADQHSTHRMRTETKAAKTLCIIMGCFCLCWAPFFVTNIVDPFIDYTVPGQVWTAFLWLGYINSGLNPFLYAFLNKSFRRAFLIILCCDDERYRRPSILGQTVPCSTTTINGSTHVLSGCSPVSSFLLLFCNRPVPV
Procedure: The derivatives were evaluated at a concentration of 1 μM for their antagonist activity on the 5HT2A receptor (Tables 1–3)[33],[34]. Human 5HT2A stably transfected HEK293 cells (a type of cell derived from kidney embryos)[20] were seeded in a 96-well plate (Costar; 3603) at a density of 9 × 10^4 in 100 μL of minimum essential medium (Welgene; LM007-86) containing 10% dialyzed fetal bovine serum (Gibco; 30067–334) and 1% penicillin/streptomycin (Gibco; 15140-122) and kept in a 37 °C incubator for 24 h. The cells were stained with 100 μL of cytosolic calcium dye using the FLIPR calcium 6 assay solution (Molecular devices, #R8190) supplemented with 2.5 mM probenecid (Sigma; P8761) and incubated for 1 h at 37 °C. After 1 h, the designated amount of the compound was treated in each well and incubated for another 1 h at 37 °C. Then, the cells were loaded in a Flexstation 3 microplate reader (Molecular Devices; FlexStaion) and 50 μL of 5 μM 5HT (serotonin hydrochloride, Sigma; H9523) was injected from a source plate (Nunc 96-well polystyrene conical bottom MicroWell Plate, Thermo; 249662) and the fluorescence intensity (Ex/Em-485nm/ 525 nm) was measured. […]
Antagonism assay Source Stimulus Incubation Measured Detection Method […]

[1] = tested on: CDAHFD-fed C57BL/6 J mice; test: CDAHFD mice: Sirius red staining (fibrotic area);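 for Sirius red staining (fibrotic area), individual mouse: percent of liver section area positive for Sirius red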; assay type: in vivo, mouse; design: Sirius red staining (fibrotic area), individual mouse / Sirius red staining (fibrotic area), Average: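 percent of liver section area positive for Sirius red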; settings: for Sirius red staining (fibrotic area), Average / Sirius red staining (fibrotic area), individual mouse: CDAHFD mice; for Sirius red staining (fibrotic area), Average: group average n=5, CDAHFD+Vehicle 5.533, Vehicle 0.905; for Sirius red staining (fibrotic area), individual mouse: individual animals No. 1-5 (Fig.4e)
Source text: C57BL/6 J male mice were purchased from the Japan SLC. Inc (Hamamatsu, Japan). Mice (5 weeks old) were fed Teklad Certitied Irradiated Global 18% protein rodent diet purchased from Dooyeol Biotech Co. Ltd (Seoul, South Korea) during the acclimation period. The liver fibrosis/inflammation-induced groups were CDAHFD-fed (A06071302, Research diet). […] All animal experiments complied with the relevant ethical regulations.
Mouse liver tissues were fixed in 4% formalin solution (Sigma–Aldrich, St. Louis, MO, USA) and embedded in paraffin. 4-μm-thick liver sections were deparaffinized in xylene, and rehydrated through descending grades of ethanol. To evaluate liver fibrosis, sections were stained with Sirius red solution and subjected to immunohistochemical staining. Tissue sections, after deparaffinization, underwent a 16-hour incubation in a solution containing 0.1% Direct Red 80 (365548, Sigma-Aldrich) dissolved in Picric acid (P-201, Spectrum Chemical, CA, USA) for Sirius red staining. The sections were briefly immersed in a 0.01 N HCl solution (1129, Ducksan, Republic of Korea) for 2 min. and then rinsed with distilled water for destaining. Subsequently, the sections underwent dehydration through […] grades of ethanol. Immunohistochemical staining was performed using the Polyview Plus HRP-DAB (anti-Rabbit) Kit (ENZ-KIT159-0150, ENZO Life Science, NY, USA) following the manufacturers’ instructions. Deparaffinized sections were boiled in IHC-TekTM Epitope Retrieval solution (IW-1100, IHCWORLD, MD, USA) for 45 min., cooled for 1 h, incubated in a 3% H2O2 solution (69355-0350, JUNSEI, Japan) for 15 min., washed, and then incubated overnight with primary antibodies (α-SMA, ab5694, Abcam, 1:500 dilution; TNF-α, ab6671, Abcam, 1:100 dilution and IL-1β, ab9722, Abcam, 1:100 dilution). Subsequently, the sections were treated with Polyview Plus HRP for 2 h and developed with DAB chromogen/substrate. Stained […] sections were confirmed by light microscopy (Olympus BX53 upright microscope, Tokyo, Japan). The degree of hepatic fibrosis and immunohistochemical staining was quantified by morphometric analysis of stained liver sections using NIH ImageJ software.

in vitro [2] = settings: rat, plasma
in vitro [3] = settings: human, plasma
5HT2A = 5HT2A (Homo sapiens, UniProt P28223); test: 5HT subtype antagonism assay (selectivity panel): 5HT2A; settings: concentration not given
Sequence of 5HT2A (P28223 whole entry): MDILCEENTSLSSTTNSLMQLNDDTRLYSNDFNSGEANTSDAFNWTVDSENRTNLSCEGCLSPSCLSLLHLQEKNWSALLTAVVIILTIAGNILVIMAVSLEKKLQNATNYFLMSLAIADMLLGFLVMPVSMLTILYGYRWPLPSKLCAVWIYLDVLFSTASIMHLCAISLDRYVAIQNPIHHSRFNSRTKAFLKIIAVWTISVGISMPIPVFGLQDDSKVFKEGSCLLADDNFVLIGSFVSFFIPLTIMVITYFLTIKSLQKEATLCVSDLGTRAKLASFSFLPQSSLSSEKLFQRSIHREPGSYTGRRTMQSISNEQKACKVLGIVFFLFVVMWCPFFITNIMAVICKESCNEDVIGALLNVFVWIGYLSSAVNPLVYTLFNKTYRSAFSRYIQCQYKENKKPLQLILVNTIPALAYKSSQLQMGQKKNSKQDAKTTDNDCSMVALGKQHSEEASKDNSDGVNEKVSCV

## Cc1nc2n(c(=O)c1CCN1CCC(=C3c4ccc(Cl)cc4CCc4cccnc43)CC1)CCCC2O (stereo not drawn) [Compound 11c]
5HT4E (h)
  Selectivity 4E: % inhibition: -3%
[1]; 11c 5 mpk
  Sirius red staining (fibrotic area), Average: 3.015
  Sirius red staining (fibrotic area), individual mouse: 3.008 and 1.579 and 3.604 and 3.231 and 3.651
[1]; 11c 10mpk
  Sirius red staining (fibrotic area), Average: 3.818
  Sirius red staining (fibrotic area), individual mouse: 2.883 and 3.981 and 4.409 and 4.507 and 3.312
[1]; CDAHFD-fed 11c vs CDAHFD-fed vehicle group
  collagen accumulation in liver tissue (Sirius red staining): significant decrease
In vitro [2]
  remaining at 4 h: > 99.9%
In vitro [3]
  remaining at 4 h: > 98.6%
5HT2A
  Selectivity 2 A: % inhibition: 102%
